Experimental findings from ChEMBL document CHEMBL4014311, “Discovery of a Hepatitis C Virus NS5B Replicase Palm Site Allosteric Inhibitor (BMS-929075) Advanced to Phase 1 Clinical Studies” (J Med Chem, 2017) are described below.

Calls of active or inactive are those of the source. The rule behind the calls is not given here.

As a reminder, the EC50 is the concentration at which the effect is half-maximal. Usually IC50 stands for the concentration at which inhibition is half-maximal. Usually half-life stands for how long it takes for the measured level to halve. The CC50 is the concentration at which the toxic effect on the cells reaches its halfway point.

Data set [1] concerns Hepatitis C virus. As to the kind of experiment: Antiviral activity against HCV genotype 1a infected in human HuH7 cells after 3 days by luciferase reporter assay. The data set is classed as functional, cell-based, Hepacivirus hominis, subtype 1a.
Data set [2] deals with Hepatitis C virus. In words: Antiviral activity against HCV genotype 1b infected in human HuH7 cells after 3 days by luciferase reporter assay. It counts as functional, cell-based, Hepacivirus hominis. In general terms: A reporter such as luciferase makes a cellular process visible.
The nature of data set [3]: Inhibition of HCV genotype 1b NS5B replicase C316N mutant infected in human HuH7 cells assessed as reduction of viral replication after 3 days by luciferase reporter assay. The data set is classed as cell-based, Hepatitis C virus subtype 1b. The settings on record: Hepatitis C virus, Huh-7, 72 h.
A short description of data set [4]: Inhibition of HCV genotype 1b NS5B replicase expressed in Escherichia coli BL21(DE3) using polyA/biotinylated oligo(dT12) as template/primer in presence of [3H]UTP after 60 mins by SPA assay. On the set-up: species or system Hepatitis C virus subtype 1b.
Data set [5] concerns the target T1, Cytochrome P450 2C8 (Homo sapiens, UniProt P10632).
T1 sequence (P10632 whole entry): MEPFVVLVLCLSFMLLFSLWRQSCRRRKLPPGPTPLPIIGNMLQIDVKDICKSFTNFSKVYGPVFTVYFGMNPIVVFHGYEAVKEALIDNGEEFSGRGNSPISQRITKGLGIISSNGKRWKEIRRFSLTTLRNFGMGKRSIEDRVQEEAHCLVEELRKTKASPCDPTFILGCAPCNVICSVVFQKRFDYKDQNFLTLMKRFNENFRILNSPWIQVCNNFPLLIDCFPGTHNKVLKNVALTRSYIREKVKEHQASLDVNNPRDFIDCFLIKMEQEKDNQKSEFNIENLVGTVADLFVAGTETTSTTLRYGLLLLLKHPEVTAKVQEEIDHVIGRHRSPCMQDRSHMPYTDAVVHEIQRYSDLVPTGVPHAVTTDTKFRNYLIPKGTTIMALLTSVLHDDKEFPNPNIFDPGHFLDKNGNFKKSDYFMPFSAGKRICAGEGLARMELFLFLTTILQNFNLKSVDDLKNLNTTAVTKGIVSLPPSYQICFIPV
In words: Inhibition of microsomal CYP2C8 (unknown origin). The data set is classed as ADME.

Data set [6] can be described thus: Metabolic stability in rat liver microsomes assessed as parent compound remaining after 10 mins. The data set is classed as ADME, microsome. The settings on record: read-out: Stability.
The target of data set [7] is Cytochrome P450 3A4 (Homo sapiens, UniProt P08684). In words: Inhibition of microsomal CYP3A4 (unknown origin). It counts as ADME.
Data set [8] is described as follows: Metabolic stability in human liver microsomes assessed as parent compound remaining after 10 mins. The data set is classed as ADME, microsome. As to conditions: read-out: Stability.
Data set [9] in a line: Half life in human liver microsomes. It counts as ADME, microsome. (Liver microsomes are vesicles of endoplasmic reticulum, rich in cytochrome P450 enzymes.)
The nature of data set [10]: Cytotoxicity against human HuH7 cells after 3 days by CellTiter-Blue assay. It counts as cell-based, Huh-7.
The subject of data set [11] is Hepatitis C virus. As to the kind of experiment: Antiviral activity against HCV genotype 1b infected in human HuH7 cells co-treated with daclatasvir after 3 days by luciferase reporter assay. The data set is classed as functional, cell-based. The settings on record: Hepacivirus hominis.
Data set [12] has as its system Hepatitis C virus. In words: Antiviral activity against HCV genotype 1b infected in human HuH7 cells at >= 10 times antiviral EC50 after 3 days by luciferase reporter assay. It counts as functional, cell-based. As to conditions: Hepacivirus hominis.
Data set [13] can be described thus: Half life in monkey liver microsomes. The data set is classed as ADME, Macaca mulatta, microsome. The settings on record: rhesus monkey.
Data set [14] can be described thus: Half life in rat liver microsomes. It counts as ADME, microsome.
The mark [15] stands for this setting: Hepatitis C virus, subtype 1a, Huh-7, 72 h, read-out: EC50.
[16] abbreviates: Hepatitis C virus, genotype 1b, Huh-7, 72 h, read-out: EC50.

Sequence of Cytochrome P450 3A4 (P08684 whole entry): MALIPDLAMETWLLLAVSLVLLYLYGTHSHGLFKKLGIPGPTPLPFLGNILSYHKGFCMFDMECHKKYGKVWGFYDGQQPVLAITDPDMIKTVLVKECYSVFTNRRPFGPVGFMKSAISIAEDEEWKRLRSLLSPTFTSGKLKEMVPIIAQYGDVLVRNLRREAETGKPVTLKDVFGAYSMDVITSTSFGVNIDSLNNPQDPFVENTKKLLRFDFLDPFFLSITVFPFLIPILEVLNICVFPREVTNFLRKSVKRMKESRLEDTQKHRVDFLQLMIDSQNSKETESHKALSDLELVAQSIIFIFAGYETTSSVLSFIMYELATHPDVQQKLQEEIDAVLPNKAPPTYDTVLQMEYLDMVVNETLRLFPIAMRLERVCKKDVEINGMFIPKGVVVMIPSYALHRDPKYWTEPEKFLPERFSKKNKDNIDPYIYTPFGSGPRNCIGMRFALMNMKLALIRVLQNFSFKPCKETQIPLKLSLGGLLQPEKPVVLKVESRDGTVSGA

On to `CNC(=O)c1c(-c2ccc(F)cc2)oc2ccc(-c3cc(C(=O)NC4(c5ccccc5)CC4)ccc3Cl)cc12`, for which the 50% effective concentration (EC50) in data set [1] (setting [15]) amounted to 6.2 nM; in [2] (setting [16]) it was 2.5 nM; in [3], 63 nM.
Take `CNC(=O)c1c(-c2ccc(F)cc2)oc2ccc(-c3cccc(C(=O)NC(C)c4ccccc4)c3)cc12` (configuration not stated): the EC50 stood at 600 nM in data set [1] (setting [15]) and 54 nM in data set [2] (setting [16]). Further, in data set [4], the IC50 stood at 26 nM.
For `CNC(=O)c1c(-c2ccc(F)cc2)oc2ccc(OC(C)C)cc12`, the EC50 was more than 11000 nM in [1] (setting [15]) and 14000 nM in data set [2] (setting [16]). Further, the 50% inhibitory concentration (IC50) in [4] is 21000 nM.
For `CNC(=O)c1c(-c2ccc(F)cc2)oc2ccc(-c3cccc(C(=O)NC(C)(C)C)c3)cc12`, the EC50 in [1] (setting [15]) stood at 240 nM; in [2] (setting [16]) it was 18 nM. For the same compound, the IC50 in data set [4] amounted to 41 nM.
Regarding `CNC(=O)c1c(-c2ccc(F)cc2)oc2ccc(-c3ccc(C(=O)NC(C)(C)C)cc3)cc12`, in data set [2] (setting [16]), the EC50 was 980 nM. In addition, in data set [4], the 50% inhibitory concentration (IC50) stood at 3600 nM.
Turning to `CNC(=O)c1c(-c2ccc(F)cc2)oc2ccc(-c3cc(C(=O)NC4(c5ccncc5)CC4)ccc3C)cc12`, the half-inhibitory concentration (IC50) in data set [5] came to 26 nM; in [7], 73 nM. The EC50 was determined as 8.3 nM in data set [1] (setting [15]), 0.83 nM in data set [2] (setting [16]) and 63 nM in [3]. The remaining at 10 min in [6] and in [8] was 11% in each case.
For the compound `CNC(=O)c1c(-c2ccc(F)cc2)oc2ccc(-c3cc(C(=O)NC4(c5ccccc5)CC4)ccc3C)cc12`, the IC50 in [5] was 1500 nM; in data set [7], 2100 nM. Further, the concentration for a half-maximal effect (EC50) in [1] (setting [15]) is 2.1 nM; in [2] (setting [16]) it was 1.3 nM; in data set [3] it was 35 nM. Besides, the remaining at 10 min in data set [6] was determined as 39%; in [8], 68%. In data set [9], this compound came in with a half-life of 11 min. In [10], this compound gave a CC50 at 72 h of more than 25000 nM.
As to `CNC(=O)c1c(-c2ccc(F)cc2)oc2ccc(-c3cccc(C(=O)NCc4ccccc4)c3)cc12`, the EC50 amounted to 1800 nM in [1] (setting [15]) and 67 nM in data set [2] (setting [16]). Further, the IC50 in data set [4] was 91 nM.
As to `CNC(=O)c1c(-c2ccc(F)cc2)oc2ccc(-c3cccc(C(=O)NC4(c5ccccc5)CC4)c3)cc12`, the EC50 in data set [1] (setting [15]) is 36 nM; in data set [2] (setting [16]) it was 3.6 nM. The IC50 in [4] was found to be 5.9 nM.
For the compound `C=C[C@@H]1C[C@]1(NC(=O)[C@@H]1C[C@@H](Oc2ncc(OC)c3ccc(Cl)cc23)CN1C(=O)[C@@H](NC(=O)OC(C)(C)C)C(C)(C)C)C(=O)NS(=O)(=O)C1CC1`, the result in [11] and in data set [12] was Active.
On to `CNC(=O)c1c(-c2ccc(F)cc2)oc2ccc(-c3cc(C(=O)NC4(c5ccccc5)CC4)ccc3OC)cc12`, for which the half-maximal effective concentration (EC50) in [1] (setting [15]) turned out to be 7.9 nM; in data set [2] (setting [16]), 1.8 nM; in data set [3] it was 32 nM.
In the case of `CNC(=O)c1c(-c2ccc(F)cc2)oc2ccc(-c3cc(C(=O)NC4(c5ccccc5)CC4)ccc3F)cc12`, the half-maximal effective concentration (EC50) in data set [1] (setting [15]) stood at 16 nM; in data set [2] (setting [16]), 3.6 nM; in [3], 150 nM.
With `CNC(=O)c1c(-c2ccc(F)cc2)oc2ccc(-c3cccc(C(=O)OC)c3)cc12`, the half-inhibitory concentration (IC50) in data set [4] was more than 50000 nM.
In the case of `CNC(=O)c1c(-c2ccc(F)cc2)oc2ccc(-c3cc(C(=O)NC4(c5ccncn5)CC4)ccc3C)cc12`, the results for the EC50 in data set [1] (setting [15]), in data set [2] (setting [16]) and in [3] were 13 nM, 1.9 nM and 109 nM, respectively.
The corresponding values for `CNC(=O)c1c(-c2ccc(F)cc2)oc2ccc(-c3cc(C(=O)NC4(c5cccnn5)CC4)ccc3C)cc12` are 17 nM, 2.9 nM and 139 nM.
For the compound `CCNC(=O)c1cccc(-c2ccc3oc(-c4ccc(F)cc4)c(C(=O)NC)c3c2)c1`, the half-maximal effective concentration (EC50) is 1000 nM in [1] (setting [15]) and 330 nM in [2] (setting [16]). Moreover, in [4], the half-inhibitory concentration (IC50) was found to be 780 nM.
In the case of `CNC(=O)c1c(-c2ccc(F)cc2)oc2ccc(-c3cccc(CO)c3)cc12`, the half-maximal inhibitory concentration (IC50) in [4] is more than 50000 nM.
Regarding `CNC(=O)c1c(-c2ccc(F)cc2)oc2ccc(-c3cccc(C(=O)NC(C)C)c3)cc12`, the EC50 in data set [1] (setting [15]) was 630 nM; in [2] (setting [16]), 98 nM. For the same compound, the half-inhibitory concentration (IC50) in [4] was found to be 190 nM.
Turning to `CNC(=O)c1c(-c2ccc(F)cc2)oc2ccc(-c3cc(C(=O)NC4(c5cccnc5)CC4)ccc3C)cc12`, the IC50 was 350 nM in [5] and 63 nM in data set [7]. Further, the results for the EC50 in data set [1] (setting [15]), in data set [2] (setting [16]) and in [3] were 17 nM, 2.2 nM and 193 nM, respectively. Also, the remaining at 10 min in [6] was found to be 0.6%; in data set [8], 0.7%.
Take `CNC(=O)c1c(-c2ccc(F)cc2)oc2ccc(-c3cccc(C(=O)NC(C)(C)c4ccccc4)c3)cc12`: the results for the 50% effective concentration (EC50) in data set [1] (setting [15]) and in [2] (setting [16]) were 160 nM and 10 nM, respectively. Moreover, the IC50 in [4] amounted to 8 nM.
With `CNC(=O)c1c(-c2ccc(F)cc2)oc2ccc(-c3ccc(C(=O)O)s3)cc12`, the IC50 in data set [4] was 360 nM.
With `CNC(=O)c1c(-c2ccc(F)cc2)oc2ccc(-c3cccc(C(=O)O)c3)cc12`, the EC50 is more than 20000 nM in data set [1] (setting [15]) and 12000 nM in [2] (setting [16]). Further, in [4], the IC50 amounted to 1100 nM.
Turning to `CNC(=O)c1c(-c2ccc(F)cc2)oc2ccc(-c3cccc(C(N)=O)c3)cc12`, the EC50 in data set [2] (setting [16]) is more than 3700 nM. For the same compound, in data set [4], the IC50 was found to be 5700 nM.
Turning to `O=C(Nc1c(OCc2ccc(Cl)cc2)cccc1C(=O)O)c1ccccc1`, the EC50 entry in [1] and in data set [2] was “Not Active” in each case. The concentration for half-maximal inhibition (IC50) in [4] was determined as 8400 nM.
With `CNC(=O)c1c(-c2ccc(F)cc2)oc2ccc(-c3ccc(C(=O)O)cc3)cc12`, the EC50 in data set [1] (setting [15]) is more than 20000 nM; in data set [2] (setting [16]), 4500 nM. The IC50 in data set [4] is 650 nM.
Consider `CNC(=O)c1c(-c2ccc(F)cc2)oc2ccc(-c3cc(C(=O)NC4(c5nc(C)no5)CC4)ccc3C)cc12`, for which the figures for the EC50 in data set [1] (setting [15]), in [2] (setting [16]) and in data set [3] were 1.2 nM, 0.81 nM and 46 nM, respectively. Also, the figures for the half-life in data set [13] and in data set [14] were 25 min and 10 min, respectively.
On to `CNC(=O)c1c(-c2ccc(F)cc2)oc2ccc(-c3ccccc3C(=O)O)cc12`, for which the IC50 in [4] is more than 50000 nM.
As to `CNC(=O)c1c(-c2ccc(F)cc2)oc2ccc(-c3cc(C(=O)NC4(c5cnccn5)CC4)ccc3C)cc12`, the half-maximal effective concentration (EC50) in data set [1] (setting [15]) came to 15 nM; in data set [2] (setting [16]), 2.6 nM; in data set [3], 308 nM.
With `CNC(=O)c1c(-c2ccc(F)cc2)oc2ccc(-c3cccc(C(=O)N(C)C(C)(C)C)c3)cc12`, the EC50 in [1] (setting [15]) stood at 1400 nM; in [2] (setting [16]), 76 nM. The IC50 in data set [4] was 120 nM.
